Calls of active or inactive are those of the source. The rule behind the calls is not given here. Where only a bound is given, the exact number is not on record here.

Series [1] can be described thus: Cytotoxicity against dog MDCK cells assessed as cell viability after 72 hrs by MTS assay. In kind it is cell-based, Canis lupus familiaris. (In general: Formazan colour is commonly taken as a measure of viable cells.)
The next series has as its system Human respirovirus 3. In words: Antiviral activity against Parainfluenza-3 virus by cell based assay. In kind it is functional, organism-based.
In series [2] the test system is Respiratory syncytial virus. In words: Antiviral activity against Respiratory syncytial virus by cell based assay. Format: functional, organism-based.
Series [3] has as its system H3N2 subtype. The experiment in a line: Antiviral activity against Influenza A virus (A/HK/7/87 (H3N2)) infected in MDCK cells assessed as virus-induced cytopathic effect by MTS assay. Format: functional, organism-based, A/Hong Kong/7/1987(H3N2). The conditions noted are these: Influenza A virus, A/Hong Kong/7/1987(H3N2), MDCK.
In the next series the test system is Coxsackievirus B4. The experiment in a line: Antiviral activity against Coxsackievirus B4 by cell based assay. In kind it is functional, organism-based.
For series [4], the system named is Vesicular stomatitis virus. In words: Antiviral activity against Vesicular stomatitis virus by cell based assay. In kind it is functional, organism-based.
A further series has as its system Punta Toro virus. The experiment in a line: Antiviral activity against Punta Toro virus by cell based assay. Format: functional, organism-based.
Another series deals with Simplexvirus. In words: Antiviral activity against Herpes simplex virus by cell based assay. In kind it is functional, organism-based.
The next series deals with Vaccinia virus. In words: Antiviral activity against Vaccinia virus by cell based assay. In kind it is functional, organism-based. As to conditions: Orthopoxvirus vaccinia.
The subject of a further series is Sindbis virus. The experiment in a line: Antiviral activity against Sindbis virus by cell based assay. Format: functional, organism-based.
In another series the test system is Feline coronavirus. In words: Antiviral activity against Feline coronavirus by cell based assay. Format: functional, organism-based.
A short description of series [5]: Cytotoxicity against dog MDCK cells assessed as cell morphology alterations. Format: cell-based, Canis lupus familiaris.
Series [6] relates to Mammalian orthoreovirus 1. In words: Antiviral activity against Reovirus-1 by cell based assay. Format: functional, organism-based.
Series [7] concerns H3N2 subtype. In words: Antiviral activity against Influenza A virus (A/HK/7/87 (H3N2)) infected in MDCK cells assessed as virus-induced cytopathic effect measured 3 days post infection by microscopic analysis. In kind it is functional, organism-based. As to conditions: A/Hong Kong/7/1987(H3N2), 72 h. Background: Cytopathic effects are the visible damage that an infection or toxin causes in cultured cells.

As to `CCCC1(CCC)C2CC3CC(C2)CC1(N)C3`, the CC50 (in general, the concentration giving 50% cytotoxicity) at 72 h in [1] amounted to 2.9 µM. Further, the outcome (in the series on Human respirovirus 3; in series [2]; in the series on Coxsackievirus B4; in [4]; in the series on Punta Toro virus; in the series with Simplexvirus) was inactive. In addition, the outcome (with Vaccinia virus; with Sindbis virus; in the series with Feline coronavirus; in series [6]) was inactive. In addition, the EC50 with H3N2 subtype [3] and in the series on H3N2 subtype [7] was over 100 µM in each case. Also, the MCC in [5] amounted to 6 µM.

With `CC12CC3CC1(C)CC(N)(C2)C3(C)C`, in series [1], the CC50 at 72 h is over 100 µM. Moreover, the outcome (in the series with Human respirovirus 3; in series [2]; with Coxsackievirus B4; in series [4]; in the series on Punta Toro virus; with Simplexvirus) was inactive. Also, the outcome (in the series on Vaccinia virus; in the series with Sindbis virus; in the series with Feline coronavirus; in [6]) was inactive. The EC50 in the series on H3N2 subtype [3] and in the series on H3N2 subtype [7] was over 100 µM throughout. Moreover, the MCC in series [5] is at least 100 µM.

On to `CC(C)C1C2CC3CC(C2)CC1(N(C)C)C3` (stereo unspecified), for which the CC50 at 72 h in series [1] is at least 100 µM. Moreover, the result (with Human respirovirus 3; in series [2]; with Coxsackievirus B4; in [4]; in the series with Punta Toro virus; in the series with Simplexvirus) was inactive. Further, the outcome (in the series with Vaccinia virus; with Sindbis virus; in the series on Feline coronavirus; in series [6]) was inactive. The EC50 with H3N2 subtype [3] and with H3N2 subtype [7] was over 100 µM throughout. The MCC in series [5] was over 100 µM.

Consider `CC1(C)C2CC3CC(C2)CC1(NCc1ccccc1)C3`, for which the CC50 at 72 h in series [1] worked out at 1.1 µM. In addition, the result (in the series with Human respirovirus 3; in series [2]; in the series on Coxsackievirus B4; in series [4]; in the series with Punta Toro virus; in the series on Simplexvirus) was inactive. The result (in the series on Vaccinia virus; in the series with Sindbis virus; in the series with Feline coronavirus; in series [6]) was inactive. In addition, the EC50 in the series on H3N2 subtype [3] and in the series on H3N2 subtype [7] was over 100 µM in each case. Besides, the MCC in [5] was determined as 4 µM.

With `CCNC12CC3CC(CC(C3)C1(C)C)C2`, the CC50 at 72 h in series [1] was 85 µM. Moreover, the outcome (in the series with Human respirovirus 3; in [2]; with Coxsackievirus B4; in series [4]; in the series on Punta Toro virus; in the series on Simplexvirus) was inactive. The outcome (with Vaccinia virus; in the series on Sindbis virus; in the series on Feline coronavirus; in series [6]) was inactive. Also, the EC50 in the series with H3N2 subtype [3] and in the series with H3N2 subtype [7] was over 100 µM throughout. For the same molecule, the MCC in [5] was 200 µM.

With `CN(Cc1ccccc1)C12CC3CC(CC(C3)C1(C)C)C2`, in series [1], the CC50 at 72 h came to 0.7 µM. The outcome (in the series with Human respirovirus 3; in [2]; in the series with Coxsackievirus B4; in series [4]; in the series with Punta Toro virus; in the series on Simplexvirus) was inactive. Also, the result (with Vaccinia virus; in the series with Sindbis virus; with Feline coronavirus; in series [6]) was inactive. Also, the EC50 in the series on H3N2 subtype [3] and in the series with H3N2 subtype [7] was over 100 µM each time. In addition, the MCC in [5] is 4 µM.

Consider `CCCC1(CCC)C2CC3CC(C2)CC1(N(C)C)C3`, for which the half-maximal cytotoxic concentration (CC50) at 72 h in [1] is over 100 µM. For the same molecule, the outcome (in the series on Human respirovirus 3; in series [2]; with Coxsackievirus B4; in [4]; in the series with Punta Toro virus; in the series on Simplexvirus) was inactive. The outcome (in the series on Vaccinia virus; in the series on Sindbis virus; in the series with Feline coronavirus; in series [6]) was inactive. Moreover, the EC50 in the series on H3N2 subtype [3] and in the series on H3N2 subtype [7] was over 100 µM throughout. In [5], the MCC was at least 100 µM.

On to `CNC12CC3CC(CC(C3)C1(C)C)C2`, for which the CC50 at 72 h in [1] amounted to 70 µM. Moreover, the outcome (in the series with Human respirovirus 3; in series [2]; in the series with Coxsackievirus B4; in series [4]; with Punta Toro virus; with Simplexvirus) was inactive. Further, the outcome (in the series on Vaccinia virus; with Sindbis virus; in the series on Feline coronavirus; in [6]) was inactive. Moreover, the EC50 in the series with H3N2 subtype [3] and in the series with H3N2 subtype [7] was over 100 µM in each case. The MCC in series [5] is 110 µM.

With `NC12CC3CC(CC(C3)C13CCCCC3)C2`, in series [1], the CC50 at 72 h was determined as 4.7 µM. Further, the outcome (in the series with Human respirovirus 3; in series [2]; in the series on Coxsackievirus B4; in [4]; with Punta Toro virus; in the series on Simplexvirus) was inactive. Moreover, the outcome (in the series with Vaccinia virus; in the series with Sindbis virus; with Feline coronavirus; in series [6]) was inactive. Further, the EC50 with H3N2 subtype [3] and with H3N2 subtype [7] was over 100 µM each time. In series [5], the MCC stood at 6 µM.

Turning to `CC1(C)C2CC3CC(C2)CC1(N1CCCCC1)C3`, the CC50 at 72 h in series [1] is 0.8 µM. In addition, the result (in the series on Human respirovirus 3; in series [2]; in the series with Coxsackievirus B4; in series [4]; in the series with Punta Toro virus; in the series with Simplexvirus) was inactive. Further, the outcome (in the series with Vaccinia virus; with Sindbis virus; in the series with Feline coronavirus; in [6]) was inactive. Besides, the concentration giving a half-maximal response (EC50) with H3N2 subtype [3] and in the series with H3N2 subtype [7] was over 100 µM each time. For the same molecule, the MCC in [5] came to 4 µM.

As to `CN(C)C12CC3(C)CC(CC3(C)C1)C2(C)C`, the CC50 at 72 h in series [1] was over 100 µM. In addition, the result (in the series on Human respirovirus 3; in series [2]; with Coxsackievirus B4; in series [4]; with Punta Toro virus; in the series with Simplexvirus) was inactive. The result (in the series with Vaccinia virus; in the series with Sindbis virus; with Feline coronavirus; in series [6]) was inactive. In addition, the EC50 in the series on H3N2 subtype [3] and with H3N2 subtype [7] was over 100 µM each time. Further, the MCC in [5] was at least 100 µM.

For the molecule `CN(C)C12CC3CC(CC(C3)C1(C)C)C2`, the CC50 at 72 h in series [1] worked out at 68 µM. The outcome (with Human respirovirus 3; in series [2]; in the series on Coxsackievirus B4; in [4]; with Punta Toro virus; with Simplexvirus) was inactive. In addition, the outcome (in the series with Vaccinia virus; with Sindbis virus; with Feline coronavirus; in series [6]) was inactive. For the same molecule, the EC50 with H3N2 subtype [3] and with H3N2 subtype [7] was over 100 µM each time. Moreover, in series [5], the MCC was found to be 110 µM.

Take `CC(C)C1C2CC3CC(C2)CC1(N)C3` (stereo unspecified): the CC50 at 72 h in series [1] was found to be 8.6 µM. Moreover, the outcome (in the series on Human respirovirus 3; in series [2]; in the series on Coxsackievirus B4; in series [4]; with Punta Toro virus; in the series on Simplexvirus) was inactive. The result (with Vaccinia virus; with Sindbis virus; in the series on Feline coronavirus; in [6]) was inactive. The EC50 with H3N2 subtype [3] and in the series on H3N2 subtype [7] was over 100 µM each time. For the same molecule, in series [5], the MCC is 5.3 µM.

As for `CC1(C)C2CC3CC(C2)CC1(N)C3`, the CC50 at 72 h in [1] was 77 µM. The result (in the series with Human respirovirus 3; in series [2]; in the series with Coxsackievirus B4; in series [4]; in the series on Punta Toro virus; with Simplexvirus) was inactive. Moreover, the outcome (with Vaccinia virus; with Sindbis virus; in the series with Feline coronavirus; in [6]) was inactive. The EC50 with H3N2 subtype [3] and in the series with H3N2 subtype [7] was over 100 µM each time. For the same molecule, in [5], the MCC was determined as 167 µM.

The record behind these values is ChEMBL document CHEMBL2203037, “Synthesis and Anti-influenza A Virus Activity of 2,2-Dialkylamantadines and Related Compounds” (ACS Med Chem Lett, 2012).
